Test results from ChEMBL document CHEMBL1144455, “A small molecule-kinase interaction map for clinical kinase inhibitors” (Nat Biotechnol, 2005).

Tests used:
[1] = molecular target: Tyrosine-protein kinase Yes (Homo sapiens, UniProt P07947)
[2] = molecular target: Dual specificity protein kinase CLK3 (Homo sapiens, UniProt P49761)
[3] = molecular target: Serine/threonine-protein kinase PAK 1 (Homo sapiens, UniProt Q13153)
[4] = molecular target: Mitogen-activated protein kinase kinase kinase kinase 5 (Homo sapiens, UniProt Q9Y4K4)
Ephrin type-A receptor 5 = Ephrin type-A receptor 5 (Homo sapiens, UniProt P54756)
[5] = molecular target: Dual specificity protein kinase CLK1 (Homo sapiens, UniProt P49759)
[6] = molecular target: Mitogen-activated protein kinase 10 (Homo sapiens, UniProt P53779)
[7] = molecular target: Protein-tyrosine kinase 6 (Homo sapiens, UniProt Q13882)
[8] = molecular target: T1, Serine/threonine-protein kinase 36 (Homo sapiens, UniProt Q9NRP7)
T1 sequence (Q9NRP7 whole entry): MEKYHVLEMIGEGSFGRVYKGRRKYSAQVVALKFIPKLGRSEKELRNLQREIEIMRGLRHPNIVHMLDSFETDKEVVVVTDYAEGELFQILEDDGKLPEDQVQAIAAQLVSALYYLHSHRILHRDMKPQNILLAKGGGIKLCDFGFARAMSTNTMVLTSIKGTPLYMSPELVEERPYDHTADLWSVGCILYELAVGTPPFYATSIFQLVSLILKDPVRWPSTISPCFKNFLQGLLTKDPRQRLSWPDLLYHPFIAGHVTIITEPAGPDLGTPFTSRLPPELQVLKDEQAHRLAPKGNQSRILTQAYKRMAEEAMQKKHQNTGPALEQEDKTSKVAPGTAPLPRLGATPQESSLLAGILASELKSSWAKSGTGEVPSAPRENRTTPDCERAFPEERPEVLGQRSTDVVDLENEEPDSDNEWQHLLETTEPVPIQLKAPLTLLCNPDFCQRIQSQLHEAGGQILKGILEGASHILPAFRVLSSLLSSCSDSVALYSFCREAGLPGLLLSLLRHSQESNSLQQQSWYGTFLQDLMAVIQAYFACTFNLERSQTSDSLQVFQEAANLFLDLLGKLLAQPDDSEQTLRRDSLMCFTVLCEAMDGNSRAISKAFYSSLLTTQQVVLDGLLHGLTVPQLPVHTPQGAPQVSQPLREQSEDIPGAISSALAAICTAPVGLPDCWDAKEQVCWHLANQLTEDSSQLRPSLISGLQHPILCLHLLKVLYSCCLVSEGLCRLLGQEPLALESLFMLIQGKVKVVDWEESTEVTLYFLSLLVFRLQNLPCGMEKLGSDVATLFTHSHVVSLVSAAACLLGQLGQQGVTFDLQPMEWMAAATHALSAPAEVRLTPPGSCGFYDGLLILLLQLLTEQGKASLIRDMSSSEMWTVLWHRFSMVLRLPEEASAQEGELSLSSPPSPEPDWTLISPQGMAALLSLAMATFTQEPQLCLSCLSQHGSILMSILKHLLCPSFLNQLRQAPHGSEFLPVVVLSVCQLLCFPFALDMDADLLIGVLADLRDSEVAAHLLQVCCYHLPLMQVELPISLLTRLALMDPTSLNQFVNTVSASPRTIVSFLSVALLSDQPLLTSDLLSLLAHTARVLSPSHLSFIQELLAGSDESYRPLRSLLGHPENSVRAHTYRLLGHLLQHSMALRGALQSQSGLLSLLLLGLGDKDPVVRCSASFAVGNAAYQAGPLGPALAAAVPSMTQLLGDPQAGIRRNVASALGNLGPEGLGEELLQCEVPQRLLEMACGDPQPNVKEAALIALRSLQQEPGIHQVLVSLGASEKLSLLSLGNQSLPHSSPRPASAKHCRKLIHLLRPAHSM

Ephrin type-A receptor 3 = molecular target: T2, Ephrin type-A receptor 3 (Homo sapiens, UniProt P29320)
T2 sequence (P29320 whole entry): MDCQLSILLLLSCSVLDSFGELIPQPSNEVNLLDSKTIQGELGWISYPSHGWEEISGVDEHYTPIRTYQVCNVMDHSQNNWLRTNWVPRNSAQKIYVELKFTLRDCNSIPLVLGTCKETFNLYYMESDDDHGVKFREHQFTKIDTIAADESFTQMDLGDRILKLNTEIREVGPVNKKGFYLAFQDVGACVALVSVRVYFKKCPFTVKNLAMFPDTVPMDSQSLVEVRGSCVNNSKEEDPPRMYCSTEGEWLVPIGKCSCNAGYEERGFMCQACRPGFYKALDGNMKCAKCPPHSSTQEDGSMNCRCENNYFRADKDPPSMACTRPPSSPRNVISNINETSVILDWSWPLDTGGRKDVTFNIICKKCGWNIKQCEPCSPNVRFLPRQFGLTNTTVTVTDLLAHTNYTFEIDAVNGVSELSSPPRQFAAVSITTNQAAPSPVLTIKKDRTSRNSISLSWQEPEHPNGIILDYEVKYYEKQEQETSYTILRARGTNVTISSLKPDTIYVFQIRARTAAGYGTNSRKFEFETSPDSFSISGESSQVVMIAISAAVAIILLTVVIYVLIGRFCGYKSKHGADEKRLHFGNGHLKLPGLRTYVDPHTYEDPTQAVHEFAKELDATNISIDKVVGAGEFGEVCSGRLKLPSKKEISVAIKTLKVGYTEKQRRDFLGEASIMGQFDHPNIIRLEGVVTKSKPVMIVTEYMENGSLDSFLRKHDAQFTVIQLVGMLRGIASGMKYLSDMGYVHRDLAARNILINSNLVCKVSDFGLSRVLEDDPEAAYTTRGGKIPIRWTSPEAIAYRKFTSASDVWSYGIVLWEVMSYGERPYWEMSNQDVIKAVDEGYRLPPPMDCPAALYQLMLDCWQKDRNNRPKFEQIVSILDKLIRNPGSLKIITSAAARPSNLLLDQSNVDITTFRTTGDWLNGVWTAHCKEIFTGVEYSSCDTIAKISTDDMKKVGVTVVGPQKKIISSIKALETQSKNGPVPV

[9] = molecular target: Death-associated protein kinase 3 (Homo sapiens, UniProt O43293)
[10] = molecular target: Cyclin-dependent kinase 2 (Homo sapiens, UniProt P24941)
[11] = molecular target: MAP kinase-interacting serine/threonine-protein kinase 2 (Homo sapiens, UniProt Q9HBH9)
[12] = molecular target: Serine/threonine-protein kinase pim-2 (Homo sapiens, UniProt Q9P1W9)
[13] = molecular target: Calcium/calmodulin-dependent protein kinase kinase 2 (Homo sapiens, UniProt Q96RR4)
Chain of Calcium/calmodulin-dependent protein kinase kinase 2 (Q96RR4 whole entry): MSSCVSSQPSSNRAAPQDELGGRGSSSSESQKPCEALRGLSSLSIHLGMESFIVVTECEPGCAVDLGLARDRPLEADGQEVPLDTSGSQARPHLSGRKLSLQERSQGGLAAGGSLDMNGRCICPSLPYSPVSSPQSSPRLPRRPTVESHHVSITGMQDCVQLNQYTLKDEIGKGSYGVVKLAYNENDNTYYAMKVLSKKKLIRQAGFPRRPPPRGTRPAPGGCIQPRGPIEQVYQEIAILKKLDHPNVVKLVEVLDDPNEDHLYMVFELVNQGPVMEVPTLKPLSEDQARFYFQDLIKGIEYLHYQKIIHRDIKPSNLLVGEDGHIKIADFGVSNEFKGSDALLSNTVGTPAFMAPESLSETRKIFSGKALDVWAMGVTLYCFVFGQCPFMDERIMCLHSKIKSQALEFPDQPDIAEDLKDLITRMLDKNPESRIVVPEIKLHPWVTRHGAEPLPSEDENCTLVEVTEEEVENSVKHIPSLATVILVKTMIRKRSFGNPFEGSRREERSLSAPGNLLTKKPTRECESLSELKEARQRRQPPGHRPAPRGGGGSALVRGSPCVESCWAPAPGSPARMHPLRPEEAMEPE

Chain of Death-associated protein kinase 3 (O43293 whole entry): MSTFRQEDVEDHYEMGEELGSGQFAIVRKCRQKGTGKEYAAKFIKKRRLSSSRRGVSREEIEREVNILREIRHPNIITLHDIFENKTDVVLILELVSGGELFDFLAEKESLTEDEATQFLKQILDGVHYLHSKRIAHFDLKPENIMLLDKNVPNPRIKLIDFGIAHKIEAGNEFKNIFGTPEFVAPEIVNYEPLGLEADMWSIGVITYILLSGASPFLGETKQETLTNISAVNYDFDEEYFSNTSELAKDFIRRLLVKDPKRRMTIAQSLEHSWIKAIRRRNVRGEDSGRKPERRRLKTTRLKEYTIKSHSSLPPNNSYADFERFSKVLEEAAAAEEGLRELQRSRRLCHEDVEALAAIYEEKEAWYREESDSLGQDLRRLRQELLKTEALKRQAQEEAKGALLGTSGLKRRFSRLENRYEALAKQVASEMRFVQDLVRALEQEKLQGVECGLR
Chain of Dual specificity protein kinase CLK3 (P49761 whole entry): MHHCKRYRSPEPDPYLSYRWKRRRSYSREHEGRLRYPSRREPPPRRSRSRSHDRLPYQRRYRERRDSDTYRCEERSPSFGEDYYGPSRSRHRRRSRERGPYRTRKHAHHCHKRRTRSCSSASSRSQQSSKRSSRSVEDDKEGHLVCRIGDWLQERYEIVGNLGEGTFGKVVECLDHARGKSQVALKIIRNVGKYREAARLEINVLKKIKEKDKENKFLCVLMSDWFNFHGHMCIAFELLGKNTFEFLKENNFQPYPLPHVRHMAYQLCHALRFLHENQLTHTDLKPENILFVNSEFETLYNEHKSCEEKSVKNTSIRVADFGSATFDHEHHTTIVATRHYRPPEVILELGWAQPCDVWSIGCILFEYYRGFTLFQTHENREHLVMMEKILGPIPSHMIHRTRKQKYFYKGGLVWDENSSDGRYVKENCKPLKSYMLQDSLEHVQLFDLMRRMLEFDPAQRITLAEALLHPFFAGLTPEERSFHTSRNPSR
Chain of Ephrin type-A receptor 5 (P54756 whole entry): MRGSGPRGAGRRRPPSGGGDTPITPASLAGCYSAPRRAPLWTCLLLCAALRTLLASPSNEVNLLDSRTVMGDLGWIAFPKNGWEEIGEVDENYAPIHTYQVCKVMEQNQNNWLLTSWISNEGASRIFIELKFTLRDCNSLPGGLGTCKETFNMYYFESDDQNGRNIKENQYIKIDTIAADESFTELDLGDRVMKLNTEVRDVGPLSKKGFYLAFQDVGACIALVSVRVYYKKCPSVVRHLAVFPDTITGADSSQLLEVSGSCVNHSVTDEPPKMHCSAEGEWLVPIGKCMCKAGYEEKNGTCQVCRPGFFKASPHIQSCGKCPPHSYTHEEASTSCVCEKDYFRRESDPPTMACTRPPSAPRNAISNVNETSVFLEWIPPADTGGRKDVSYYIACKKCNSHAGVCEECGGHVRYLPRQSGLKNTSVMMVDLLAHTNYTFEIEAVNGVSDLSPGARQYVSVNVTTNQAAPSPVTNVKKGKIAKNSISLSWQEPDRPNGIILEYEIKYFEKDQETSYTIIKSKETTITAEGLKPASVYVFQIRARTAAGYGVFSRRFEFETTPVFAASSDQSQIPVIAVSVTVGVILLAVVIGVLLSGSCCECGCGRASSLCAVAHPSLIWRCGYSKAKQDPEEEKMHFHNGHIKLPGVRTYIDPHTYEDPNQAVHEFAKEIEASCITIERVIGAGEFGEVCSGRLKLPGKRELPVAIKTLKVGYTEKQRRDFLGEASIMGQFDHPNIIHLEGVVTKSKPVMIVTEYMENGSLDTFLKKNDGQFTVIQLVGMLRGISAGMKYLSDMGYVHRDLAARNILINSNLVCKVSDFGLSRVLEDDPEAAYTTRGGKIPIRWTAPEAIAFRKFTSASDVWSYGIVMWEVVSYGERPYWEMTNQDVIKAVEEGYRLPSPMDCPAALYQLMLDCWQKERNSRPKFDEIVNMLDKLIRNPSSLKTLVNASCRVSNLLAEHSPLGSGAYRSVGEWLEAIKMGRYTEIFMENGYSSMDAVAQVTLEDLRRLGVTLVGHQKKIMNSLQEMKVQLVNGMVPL
Chain of Protein-tyrosine kinase 6 (Q13882 whole entry): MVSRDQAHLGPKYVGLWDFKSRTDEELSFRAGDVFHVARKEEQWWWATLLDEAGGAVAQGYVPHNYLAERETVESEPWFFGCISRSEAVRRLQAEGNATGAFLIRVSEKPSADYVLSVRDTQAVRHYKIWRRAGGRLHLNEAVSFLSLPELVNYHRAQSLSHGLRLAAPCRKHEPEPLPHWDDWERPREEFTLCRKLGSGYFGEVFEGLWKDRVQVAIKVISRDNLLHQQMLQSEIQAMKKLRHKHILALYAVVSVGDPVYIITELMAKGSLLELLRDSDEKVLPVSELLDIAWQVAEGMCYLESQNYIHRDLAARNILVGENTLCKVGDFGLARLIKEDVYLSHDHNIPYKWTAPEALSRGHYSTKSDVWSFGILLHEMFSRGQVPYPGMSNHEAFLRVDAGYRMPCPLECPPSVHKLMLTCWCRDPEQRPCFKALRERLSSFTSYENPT
Chain of Mitogen-activated protein kinase 10 (P53779 whole entry): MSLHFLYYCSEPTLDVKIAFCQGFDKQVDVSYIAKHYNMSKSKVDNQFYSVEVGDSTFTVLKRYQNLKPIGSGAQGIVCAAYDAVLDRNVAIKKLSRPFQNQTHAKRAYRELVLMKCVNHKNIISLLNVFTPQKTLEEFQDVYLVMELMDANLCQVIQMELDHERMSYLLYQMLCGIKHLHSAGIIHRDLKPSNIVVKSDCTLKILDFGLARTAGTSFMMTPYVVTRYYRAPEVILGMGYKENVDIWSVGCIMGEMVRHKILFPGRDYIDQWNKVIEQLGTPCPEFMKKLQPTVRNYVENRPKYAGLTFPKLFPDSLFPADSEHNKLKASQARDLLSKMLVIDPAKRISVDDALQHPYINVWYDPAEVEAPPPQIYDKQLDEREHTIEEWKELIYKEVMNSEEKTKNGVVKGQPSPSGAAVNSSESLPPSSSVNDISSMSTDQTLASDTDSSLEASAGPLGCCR
Chain of Mitogen-activated protein kinase kinase kinase kinase 5 (Q9Y4K4 whole entry): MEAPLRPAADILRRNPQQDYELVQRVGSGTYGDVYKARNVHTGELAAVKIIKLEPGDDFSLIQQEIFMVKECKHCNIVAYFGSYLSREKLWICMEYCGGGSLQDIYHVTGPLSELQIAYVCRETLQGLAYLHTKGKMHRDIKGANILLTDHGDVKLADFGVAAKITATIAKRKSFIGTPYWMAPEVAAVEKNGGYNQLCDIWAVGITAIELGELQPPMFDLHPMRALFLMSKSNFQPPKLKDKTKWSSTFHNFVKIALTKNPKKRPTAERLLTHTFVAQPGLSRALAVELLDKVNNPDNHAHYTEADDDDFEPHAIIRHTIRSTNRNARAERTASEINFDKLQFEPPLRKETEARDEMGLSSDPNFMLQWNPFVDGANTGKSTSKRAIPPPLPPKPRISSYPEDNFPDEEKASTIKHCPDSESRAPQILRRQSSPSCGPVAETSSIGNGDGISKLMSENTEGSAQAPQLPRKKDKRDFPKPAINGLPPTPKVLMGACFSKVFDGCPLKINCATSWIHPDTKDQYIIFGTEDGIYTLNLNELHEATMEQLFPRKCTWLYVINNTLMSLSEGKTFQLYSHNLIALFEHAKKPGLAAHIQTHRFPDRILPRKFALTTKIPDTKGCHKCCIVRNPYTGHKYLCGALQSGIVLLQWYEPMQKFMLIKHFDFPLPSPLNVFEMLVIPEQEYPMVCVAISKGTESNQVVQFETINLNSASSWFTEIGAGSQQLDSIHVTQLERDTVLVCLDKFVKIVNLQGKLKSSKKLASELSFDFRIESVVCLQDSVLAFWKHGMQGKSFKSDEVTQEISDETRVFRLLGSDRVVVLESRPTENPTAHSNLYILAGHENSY
Chain of Serine/threonine-protein kinase pim-2 (Q9P1W9 whole entry): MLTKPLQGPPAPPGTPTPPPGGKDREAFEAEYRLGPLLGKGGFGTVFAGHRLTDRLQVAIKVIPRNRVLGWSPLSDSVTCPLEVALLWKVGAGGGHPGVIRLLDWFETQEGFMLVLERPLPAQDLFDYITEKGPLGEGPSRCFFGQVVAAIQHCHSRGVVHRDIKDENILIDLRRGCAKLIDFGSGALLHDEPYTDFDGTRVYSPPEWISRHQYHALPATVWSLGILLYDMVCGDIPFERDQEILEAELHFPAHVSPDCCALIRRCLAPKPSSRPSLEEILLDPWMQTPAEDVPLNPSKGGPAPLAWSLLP

## CCOc1cc2ncc(C#N)c(Nc3ccc(F)c(Cl)c3)c2cc1NC(=O)/C=C/CN(C)C [PELITINIB]
[1]
  Kd: 840 nM
[2]
  Kd: 2100 nM
[3]
  Kd: 2100 nM
[4]
  Kd: 3.7 nM
Ephrin type-A receptor 5
  Kd: 710 nM
[5]
  Kd: 1000 nM

## Oc1ccc(-c2nc(-c3ccc(F)cc3)c(-c3ccncc3)[nH]2)cc1 [SB-202190]
[6]
  Kd: 51 nM
[7]
  Kd: 3000 nM
[8]
  Kd: 3800 nM

## Oc1c2ccccc2c2c3c(cccc13)N=N2 [SP-600125]
Ephrin type-A receptor 3
  Kd: 4000 nM
[9]
  Kd: 410 nM
[10]
  Kd: 3200 nM
[11]
  Kd: 1000 nM
[12]
  Kd: 460 nM
[13]
  Kd: 7500 nM
